Measured values: patent publication US7825253B2, “2-aminoquinoline derivatives” (Hoffmann-La Roche Inc., priority 2006, dated 2010)
pKi: −log10 of the molar value.

Test system: not given
Assay: not given
Details: not given

Compared with COc1ccccc1CNc1ccc2c(C(=N)c3ccc(F)cc3)cccc2n1 [Example 136, {5-[(4-Fluoro-phenyl)-imino-methyl]-quinolin-2-yl}-(2-methoxy-benzyl)-amine], COc1ccccc1CNc1ccc2c(CNC(=O)c3ccc(F)cc3)cccc2n1 [Example 146] is higher in melting point: 155 °C for the first, 162.5 °C for the second.

Compared with Cc1ccc(CNc2ccc3c(CNC(=O)c4ccc(F)cc4)cccc3n2)o1 [Example 126, 4-Fluoro-N-{2-[(5-methyl-furan-2-ylmethyl)-amino]-quinolin-5-ylmethyl}-benzamide], COc1ccccc1CNc1ccc2c(-c3noc(C)n3)cccc2n1 [Example 150, (2-Methoxy-benzyl)-[5-(5-methyl-[1,2,4]oxadiazol-3-yl)-quinolin-2-yl]-amine] is lower in melting point: 173 °C for the first, 121.5 °C for the second.

Target: T1, recombinant human 5-HT5A receptor (Homo sapiens, UniProt P47898)
T1 construct: expressed in transfected cells; host or cells: Human Embryonic Kidney-EBNA (HEK-EBNA) cells, transient cDNA expression; membranes
Assay: [3H]LSD radioligand binding assay
Details: [3H]LSD approx. 1 nM; membranes from HEK-EBNA cells transiently expressing 5-HT5A; Ki from IC50 by Cheng-Prussoff
Experimental: A [^3H]LSD radioligand binding assay was used to determine the affinity of the compounds for the recombinant human 5-HT5A receptor, in membranes from transiently (cDNA) expressed 5-HT5A receptors in Human Embryonic Kidney-EBNA (HEK-EBNA) cells. Assay buffer consisted of Tris (50 mM) buffer containing 1 mM EGTA, 10 mM MgCl2 (pH 7.4) and 10 μM pargyline. The binding assay was carried out in 96-well-plates in the presence of [^3H]LSD (approximately 1 nM), approximately 2 μg/well of membrane protein, and 0.5 mg of Ysi-poly-l-lysine SPA beads in a final volume of 200 μl of buffer. Non-specific binding was defined using methiothepin 2 μM. Compounds were tested at 10 concentrations. All assays were conducted in duplicate and repeated at least two times. Assay plates were incubated for 120 min at room temperature before centrifugation. Bound ligand was determined using a Packard Topcount scintillation counter. IC50 values were calculated using a non-linear curve fitting program and Ki values calculated using the Cheng-Prussoff equation.

T1 sequence (P47898 whole entry): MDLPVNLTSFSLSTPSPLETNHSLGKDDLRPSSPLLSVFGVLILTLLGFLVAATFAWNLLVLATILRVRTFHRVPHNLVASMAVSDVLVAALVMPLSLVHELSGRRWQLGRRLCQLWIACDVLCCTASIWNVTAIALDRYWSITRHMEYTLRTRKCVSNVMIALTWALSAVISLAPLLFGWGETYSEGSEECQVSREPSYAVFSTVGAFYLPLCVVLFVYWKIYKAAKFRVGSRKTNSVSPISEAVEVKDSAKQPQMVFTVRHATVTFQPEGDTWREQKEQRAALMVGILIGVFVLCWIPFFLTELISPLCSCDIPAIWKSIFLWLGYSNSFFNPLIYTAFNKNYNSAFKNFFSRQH

COc1ccccc1CNc1ccc2c(C(=N)c3ccc(F)cc3)cccc2n1 [Example 136, {5-[(4-Fluoro-phenyl)-imino-methyl]-quinolin-2-yl}-(2-methoxy-benzyl)-amine] and COc1ccccc1CNc1ccc2c(C(=O)c3ccc(F)cc3)cccc2n1 [Example 137, (4-Fluoro-phenyl)-[2-(2-methoxy-benzylamino)-quinolin-5-yl]-methanone] are within 0.2 log units of each other in pKi: 7.45 for the first, 7.29 for the second.

Going from COc1ccccc1CNc1ccc2c(CNC(=O)c3ccc(F)cc3)cccc2n1 [Example 146] to COc1ccccc1CNc1ccc2c(NCc3ccccc3OC)cccc2n1 [Example 6, N2,N5-Bis-(2-methoxy-benzyl)-quinoline-2,5-diamine], the pKi rises from 7.07 to 7.99 (0.92 log units). The second binds more tightly here.

CSc1ccccc1CNc1ccc2c(NS(=O)(=O)c3ccc(F)cc3)cccc2n1 [Example 82, 4-Fluoro-N-[2-(2-methylsulfanyl-benzylamino)-quinolin-5-yl]-benzenesulfonamide] and O=S(=O)(Nc1cccc2nc(NCc3ccccc3OC(F)(F)F)ccc12)c1ccc(F)cc1 [Example 108, 4-Fluoro-N-[2-(2-trifluoromethoxy-benzylamino)-quinolin-5-yl]-benzenesulfonamide] are within 0.2 log units of each other in pKi: 7.47 for the first, 7.30 for the second.

Compared with FC(F)(F)Oc1ccccc1CNc1ccc2c(NCc3ccc4[nH]cnc4c3)cccc2n1 [Example 117, N5-(1H-Benzoimidazol-5-ylmethyl)-N2-(2-trifluoromethoxy-benzyl)-quinoline-2,5-diamine], c1cc(Nc2ccc3c(NCc4ccc5[nH]cnc5c4)cccc3n2)cc(C2CC2)c1 [Example 165, N5-(1H-Benzoimidazol-5-ylmethyl)-N2-(3-cyclopropyl-phenyl)-quinoline-2,5-diamine] is 0.70 log units higher in pKi: 7.49 for the first, 8.19 for the second. The second binds more tightly here.

First: COc1ncccc1CNc1cccc2nc(NCc3ccc(C)o3)ccc12 [Example 27, N5-(2-Methoxy-pyridin-3-ylmethyl)-N2-(5-methyl-furan-2-ylmethyl)-quinoline-2,5-diamine]
Second: Cc1ccc(CNc2ccc3c(NCc4cccnc4)cccc3n2)o1 [Example 15, N2-(5-Methyl-furan-2-ylmethyl)-N5-pyridin-3-ylmethyl-quinoline-2,5-diamine]
The pKi of the first is 0.59 log units lower: 7.37 for the first, 7.96 for the second.

CC1(C)Cc2cccc(Nc3ccc4c(NS(=O)(=O)c5cc(F)cc(F)c5)cccc4n3)c2O1 [Example 141, N-[2-(2,2-Dimethyl-2,3-dihydro-benzofuran-7-ylamino)-quinolin-5-yl]-3,5-difluoro-benzenesulfonamide] and Cc1ccc(CNc2ccc3c(NS(=O)(=O)c4cc(F)cc(F)c4)cccc3n2)s1 [Example 85, 3,5-Difluoro-N-{2-[(5-methyl-thiophen-2-ylmethyl)-amino]-quinolin-5-yl}-benzenesulfonamide] are within 0.2 log units of each other in pKi: 7.66 for the first, 7.78 for the second.

First: COc1ccccc1CNc1ccc2c(NCc3[nH]cnc3C)cccc2n1 [Example 96, N2-(2-Methoxy-benzyl)-N5-(5-methyl-3H-imidazol-4-ylmethyl)-quinoline-2,5-diamine]
Second: Cc1nc[nH]c1CNc1cccc2nc(Nc3cccc(C4CC4)c3)ccc12 [Example 166, N2-(3-Cyclopropyl-phenyl)-N5-(5-methyl-3H-imidazol-4-ylmethyl)-quinoline-2,5-diamine]
The pKi of the first is 0.24 log units higher: 7.71 for the first, 7.47 for the second.

Compared with CC1(C)Cc2cccc(Nc3ccc4c(NCc5ccc6[nH]cnc6c5)cccc4n3)c2O1 [Example 148, N5-(1H-Benzoimidazol-5-ylmethyl)-N2-(2,2-dimethyl-2,3-dihydro-benzofuran-7-yl)-quinoline-2,5-diamine], CC1(C)Cc2cccc(Nc3ccc4c(NCc5cccnc5)cccc4n3)c2O1 [Example 163, N2-(2,2-Dimethyl-2,3-dihydro-benzofuran-7-yl)-N5-pyridin-3-ylmethyl-quinoline-2,5-diamine] is 0.51 log units lower in pKi: 8.51 for the first, 8.00 for the second. The first binds more tightly here.

Going from Cc1ccc(CNc2ccc3c(NCc4cc(F)cc(F)c4)cccc3n2)o1 [Example 120, N5-(3,5-Difluoro-benzyl)-N2-(5-methyl-furan-2-ylmethyl)-quinoline-2,5-diamine] to Cc1ccc(CNc2ccc3c(NCc4ccc(F)cc4)cccc3n2)o1 [Example 20, N5-(4-Fluoro-benzyl)-N2-(5-methyl-furan-2-ylmethyl)-quinoline-2,5-diamine], the pKi falls from 8.07 to 7.60 (0.47 log units). The first binds more tightly here.

First: Cc1ccc(CNc2ccc3c(CCc4ccccc4)cccc3n2)o1 [Example 17, (5-Methyl-furan-2-ylmethyl)-(5-phenethyl-quinolin-2-yl)-amine]
Second: Cc1ccc(CNc2ccc3c(SCc4ccccc4)cccc3n2)o1 [Example 46, (5-Benzylsulfanyl-quinolin-2-yl)-(5-methyl-furan-2-ylmethyl)-amine]
The pKi of the first is 0.20 log units higher: 7.67 for the first, 7.47 for the second. The first binds more tightly here.

First: COc1ccccc1CNc1ccc2c(OCC[S+]([O-])c3ccccc3)cccc2n1 (stereo not shown) [Example 83, [5-(2-Benzenesulfinyl-ethoxy)-quinolin-2-yl]-(2-methoxy-benzyl)-amine]
Second: COCc1cccc(CCc2cccc3nc(NCc4ccc(C)o4)ccc23)c1 [Example 33, {5-[2-(3-Methoxymethyl-phenyl)-ethyl]-quinolin-2-yl}-(5-methyl-furan-2-ylmethyl)-amine]
The pKi of the first is 0.39 log units lower: 7.02 for the first, 7.41 for the second. The second binds more tightly here.

Going from Cc1ccc(CNc2ccc3c(NCc4cccc5c4OCO5)cccc3n2)o1 [Example 103, N5-Benzo[1,3]dioxol-4-ylmethyl-N2-(5-methyl-furan-2-ylmethyl)-quinoline-2,5-diamine] to Cc1cccc(CNc2cccc3nc(NCc4ccc(C)o4)ccc23)n1 [Example 29, N2-(5-Methyl-furan-2-ylmethyl)-N5-(6-methyl-pyridin-2-ylmethyl)-quinoline-2,5-diamine], the pKi falls from 8.18 to 7.76 (0.42 log units). The first binds more tightly here.

Going from Cc1ccc(CNc2ccc3c(NS(=O)(=O)c4ccc(Cl)s4)cccc3n2)o1 [Example 58, 5-Chloro-thiophene-2-sulfonic acid {2-[(5-methyl-furan-2-ylmethyl)-amino]-quinolin-5-yl}-amide] to Cc1ccc(CNc2ccc3c(NS(=O)(=O)c4ccc(Cl)nc4)cccc3n2)o1 [Example 59, 6-Chloro-pyridine-3-sulfonic acid {2-[(5-methyl-furan-2-ylmethyl)-amino]-quinolin-5-yl}-amide], the pKi falls from 8.12 to 7.70 (0.42 log units).

First: Cc1ccc(CNc2ccc3c(NCc4ccccn4)cccc3n2)o1 [Example 26, N2-(5-Methyl-furan-2-ylmethyl)-N5-pyridin-2-ylmethyl-quinoline-2,5-diamine]
Second: Cc1ccc(CNc2ccc3c(NCc4cc[nH]n4)cccc3n2)o1 [Example 88, N2-(5-Methyl-furan-2-ylmethyl)-N5-(1H-pyrazol-3-ylmethyl)-quinoline-2,5-diamine]
The pKi of the first is 0.20 log units higher: 7.68 for the first, 7.48 for the second.

First: c1cc(Nc2ccc3c(NCc4cccc5[nH]ccc45)cccc3n2)cc(C2CC2)c1 [Example 164, N2-(3-Cyclopropyl-phenyl)-N5-(1H-indol-4-ylmethyl)-quinoline-2,5-diamine]
Second: CC1(C)Cc2cccc(Nc3ccc4c(NCc5cccc6[nH]ccc56)cccc4n3)c2O1 [Example 147, N2-(2,2-Dimethyl-2,3-dihydro-benzofuran-7-yl)-N5-(1H-indol-4-ylmethyl)-quinoline-2,5-diamine]
The pKi of the first is 0.59 log units lower: 7.78 for the first, 8.37 for the second.

Going from Cc1cc2cccc(Nc3ccc4c(NCc5[nH]cnc5C)cccc4n3)c2o1 [Example 125, N2-(2-Methyl-benzofuran-7-yl)-N5-(5-methyl-3H-imidazol-4-ylmethyl)-quinoline-2,5-diamine] to Cc1ccc(CNc2ccc3c(NCc4c[nH]cn4)cccc3n2)o1 [Example 87, N5-(1H-Imidazol-4-ylmethyl)-N2-(5-methyl-furan-2-ylmethyl)-quinoline-2,5-diamine], the pKi falls from 8.63 to 7.80 (0.83 log units). The first binds more tightly here.

Cc1ccc(CNc2ccc3c(Nc4ccc(Cl)nc4)cccc3n2)o1 [Example 57, N5-(6-Chloro-pyridin-3-yl)-N2-(5-methyl-furan-2-ylmethyl)-quinoline-2,5-diamine] and Cc1ccc(CNc2ccc3c(NCc4cnn[nH]4)cccc3n2)o1 [Example 115, N2-(5-Methyl-furan-2-ylmethyl)-N5-(3H-[1,2,3]triazol-4-ylmethyl)-quinoline-2,5-diamine] are within 0.2 log units of each other in pKi: 7.50 for the first, 7.45 for the second.

Cc1ccc(CNc2ccc3c(NS(=O)(=O)c4cccc(F)c4)cccc3n2)o1 [Example 73, 3-Fluoro-N-{2-[(5-methyl-furan-2-ylmethyl)-amino]-quinolin-5-yl}-benzenesulfonamide] and Cc1ccc(CNc2ccc3c(N[C@H]4CCS(=O)(=O)c5ccccc54)cccc3n2)o1 [Example 152, (R)— and (S)—N5-((S)-1,1-Dioxo-1l6-thiochroman-4-yl)-N2-(5-methyl-furan-2-ylmethyl)-quinoline-2,5-diamine] are within 0.2 log units of each other in pKi: 7.67 for the first, 7.83 for the second.
